# Measured values taken from ChEMBL document CHEMBL3856260, “A synergistic antitumor effect of polyphyllin I and formosanin C on hepatocarcinoma cells” (Bioorg Med Chem Lett, 2016).
# The source made the active and inactive calls. No cut-off for these calls is given here.
# Key:
# [1] = Cytotoxicity against human HepG2 cells assessed as combination index at ED30 using 1:1 compound to polyphyllin I incubated for 24 hrs by MTT assay; format: functional
# [2] = Cytotoxicity against human Bel7402 cells assessed as combination index at ED30 using 1:1 compound to polyphyllin I incubated for 24 hrs by MTT assay; format: functional, Bel-7402
# [3] = Cytotoxicity against human HepG2 cells assessed as combination index at ED50 using 1:1 compound to polyphyllin I incubated for 24 hrs by MTT assay; format: functional
# [4] = Cytotoxicity against human Bel7402 cells assessed as combination index at ED50 using 1:1 compound to polyphyllin I incubated for 24 hrs by MTT assay; format: functional, Bel-7402
# [5] = Induction of apoptosis in human HepG2 cells assessed as upregulation of p53 mRNA level at 1 uM incubated for 24 hrs by RT-PCR analysis in presence of polyphyllin I; format: functional, cell-based
# [6] = Induction of apoptosis in human HepG2 cells assessed as upregulation of Bax mRNA level at 1 uM incubated for 24 hrs by RT-PCR analysis in presence of polyphyllin I; format: functional, cell-based
# [7] = Induction of apoptosis in human HepG2 cells assessed as upregulation of caspase3 mRNA level at 1 uM incubated for 24 hrs by RT-PCR analysis in presence of polyphyllin I; format: functional, cell-based
# [8] = Induction of apoptosis in human HepG2 cells assessed as upregulation of p53 level at 1 uM incubated for 24 hrs by Western blot analysis in presence of polyphyllin I; format: functional, cell-based
# [9] = Induction of apoptosis in human HepG2 cells assessed as upregulation of Bax level at 1 uM incubated for 24 hrs by Western blot analysis in presence of polyphyllin I; format: functional, cell-based
# [10] = Induction of apoptosis in human HepG2 cells assessed as upregulation of caspase3 level at 1 uM incubated for 24 hrs by Western blot analysis in presence of polyphyllin I; format: functional, cell-based
# HepG2 [11] = test: Induction of apoptosis in human HepG2 cells assessed as downregulation of Bcl2 mRNA level at 1 uM incubated for 24 hrs by RT-PCR analysis in presence of polyphyllin I; format: functional, cell-based
# HepG2 [12] = test: Induction of apoptosis in human HepG2 cells assessed as downregulation of NF-kappaB […] level at 1 uM incubated for 24 hrs by RT-PCR analysis in presence of polyphyllin I; format: functional, cell-based
# HepG2 [13] = test: Induction of nuclear fragmentation in human HepG2 cells at 0.5 uM after 24 hrs by Hoechst 33258 staining-based fluorescence microscopic analysis in presence of polyphyllin I; format: functional, cell-based
# HepG2 [14] = test: Induction of chromatin compaction in human HepG2 cells at 0.5 uM after 24 hrs by Hoechst 33258 staining-based fluorescence microscopic analysis in presence of polyphyllin I; format: functional, cell-based
# HepG2 [15] = test: Induction of nuclear fragmentation in human HepG2 cells at 1 uM after 24 hrs by Hoechst 33258 staining-based fluorescence microscopic analysis; format: functional, cell-based
# HepG2 [16] = test: Induction of chromatin compaction in human HepG2 cells at 1 uM after 24 hrs by Hoechst 33258 staining-based fluorescence microscopic analysis; format: functional, cell-based
# [17] = Cell cycle arrest in human HepG2 cells assessed as accumulation at G1 phase at 1 uM after 24 hrs by propidium iodide staining-based flow cytometry(reference value: 55.62%); format: functional
# [18] = Cell cycle arrest in human HepG2 cells assessed as accumulation at S phase at 1 uM after 24 hrs by propidium iodide staining-based flow cytometry(reference value: 42.33%); format: functional
# [19] = Cell cycle arrest in human HepG2 cells assessed as accumulation at G2 phase at 1 uM after 24 hrs by propidium iodide staining-based flow cytometry(reference value: 2.04%); format: functional
# HepG2 [20] = test: Induction of apoptosis in human HepG2 cells at 1 uM after 24 hrs by propidium iodide staining-based flow cytometry(reference value: 3.01%); format: functional
# [21] = Cell cycle arrest in human HepG2 cells assessed as accumulation at G1 phase at 1 uM after 24 hrs by propidium iodide staining-based flow cytometry in presence of PPI (reference value: 55.62%); format: functional
# [22] = Cell cycle arrest in human HepG2 cells assessed as accumulation at G2 phase at 1 uM after 24 hrs by propidium iodide staining-based flow cytometry in presence of PPI (reference value: 2.04%); format: functional
# [23] = Cell cycle arrest in human HepG2 cells assessed as accumulation at S phase at 1 uM after 24 hrs by […] staining-based flow cytometry in presence of PPI (reference value: 42.33%); format: functional
# HepG2 [24] = test: Induction of apoptosis in human HepG2 cells at 1 uM after 24 hrs by propidium iodide staining-based flow cytometry in presence of PPI (reference value: 3.01%); format: functional
# HepG2 [25] = test: Increase in p21 mRNA level in human HepG2 cells at 1 uM incubated for 24 hrs by RT-PCR analysis in presence of polyphyllin I relative to formosanin C alone treatment; format: functional, cell-based
# HepG2 [26] = test: Decrease in cyclin E mRNA level in human HepG2 cells at 1 uM incubated for 24 hrs by RT-PCR analysis in presence of polyphyllin I relative to formosanin C alone treatment; format: functional, cell-based
# HepG2 [27] = test: Decrease in CDK2 level in human HepG2 cells at 1 uM incubated for 24 hrs by Western blot analysis in presence of polyphyllin relative to relative to polyphyllin I alone treatment; format: functional, cell-based
# HepG2 [28] = test: Change in PCNA mRNA level in human HepG2 cells at 1 uM incubated for 24 hrs by RT-PCR analysis in presence of polyphyllin I relative to formosanin C alone treatment; format: functional, cell-based
# HepG2 [29] = test: Increase in p21 level in human HepG2 cells at 1 uM incubated for 24 hrs by Western blot analysis in presence of polyphyllin I; format: functional, cell-based
# HepG2 [30] = test: Decrease in cyclin E level in human HepG2 cells at 1 uM incubated for 24 hrs Western blot analysis in presence of polyphyllin I; format: functional, cell-based
# HepG2 [31] = test: Decrease in CDK2 level in human HepG2 cells at 1 uM incubated for 24 hrs by Western blot analysis in presence of polyphyllin I; format: functional, cell-based
# [32] = Suppression of MMP9 expression in human HepG2 cells assessed as reduction in enzyme activity at 1 uM after 24 hrs by zymographic analysis in presence of polyphyllin I; format: functional, cell-based
# HepG2 [33] = test: Antimigratory activity in human HepG2 cells at 1 uM after 24 hrs by wound healing assay in presence of polyphyllin I; format: functional, cell-based
# HepG2 [34] = test: Induction mitochondrial membrane potential changes in human HepG2 cells at 1 uM after 24 hrs by rhodamine 123 staining-based flow cytometry (reference value: 23.8+/-2.3%); format: functional
# HepG2 [35] = test: Induction mitochondrial membrane potential changes in human HepG2 cells at 1 uM after 24 hrs by rhodamine 123 staining-based flow cytometry in presence of polyphyllin I (reference value: 23.8+/-2.3%); format: functional
# HepG2 [36] = test: Induction of Bax translocation from cytosol to mitochondria in human HepG2 cells by Western blot analysis in presence of polyphyllin I; format: functional, cell-based
# HepG2 [37] = test: Induction of cytochrome c release in human HepG2 cells by Western blot analysis in presence of polyphyllin I; format: functional, cell-based
# [38] = Cytotoxicity against human HepG2 cells after 24 hrs by MTT assay; format: functional, cell-based; settings: HepG2, 24 h
# [39] = Cytotoxicity against human Bel7402 cells after 24 hrs by MTT assay; format: functional, cell-based; settings: Bel-7402, 24 h
# [40] = Cytotoxicity against human HepG2 cells assessed as combination index at ED75 using 1:1 compound to polyphyllin I incubated for 24 hrs by MTT assay; format: functional
# [41] = Cytotoxicity against human Bel7402 cells assessed as combination index at ED75 using 1:1 compound to polyphyllin I incubated for 24 hrs by MTT assay; format: functional, Bel-7402
# [42] = Cytotoxicity against human HepG2 cells assessed as combination index at ED90 using 1:1 compound to polyphyllin I incubated for 24 hrs by MTT assay; format: functional
# [43] = Cytotoxicity against human Bel7402 cells assessed as combination index at ED90 using 1:1 compound to polyphyllin I incubated for 24 hrs by MTT assay; format: functional, Bel-7402
# HepG2 [44] = test: Change in PCNA mRNA level in human HepG2 cells at 1 uM incubated for 24 hrs by RT-PCR analysis in presence of polyphyllin I relative to polyphyllin I alone treatment; format: functional, cell-based
# [45] = Suppression of MMP9 expression in human HepG2 cells at 1 uM after 24 hrs by Western blot analysis in presence of polyphyllin I; format: functional, cell-based
# HepG2 [46] = test: Induction of Bax translocation from cytosol to mitochondria in human HepG2 cells by Western blot analysis; format: functional, cell-based
# HepG2 [47] = test: Induction of cytochrome c release in human HepG2 cells by Western blot analysis; format: functional, cell-based
compound,measurement,setting,value
C[C@@H]1CC[C@@]2(OC1)O[C@H]1C[C@H]3[C@@H]4CC=C5C[C@@H](O[C@@H]6O[C@H](CO)[C@@H](O[C@@H]7O[C@@H](C)[C@H](O[C@@H]8O[C@@H](C)[C@H](O)[C@@H](O)[C@H]8O)[C@@H](O)[C@H]7O)[C@H](O)[C@H]6O[C@@H]6O[C@@H](C)[C@H](O)[C@@H](O)[C@H]6O)CC[C@]5(C)[C@H]4CC[C@]3(C)[C@H]1[C@@H]2C [PENNOGENIN RAHAMNOSYL CHACOTRIOSIDE],CI,[1],0.62
same,CI,[2],0.67
same,CI,[3],0.58
same,CI,[4],0.58
same,Activity,[5],Active
same,Activity,[6],Active
same,Activity,[7],Active
same,Activity,[8],Active
same,Activity,[9],Active
same,Activity,[10],Active
same,Activity,HepG2 [11],Active
same,Activity,HepG2 [12],Active
same,Activity,HepG2 [13],Active
same,Activity,HepG2 [14],Active
same,Activity,HepG2 [15],Active
same,Activity,HepG2 [16],Active
same,Activity,[17],60.9%
same,Activity,[18],36.4%
same,Activity,[19],2.74%
same,Activity,HepG2 [20],6.96%
same,Activity,[21],68.7%
same,Activity,[22],2.63%
same,Activity,[23],28.7%
same,Activity,HepG2 [24],7.52%
same,Activity,HepG2 [25],Active
same,Activity,HepG2 [26],Active
same,Activity,HepG2 [27],Active
same,Activity,HepG2 [28],Active
same,Activity,HepG2 [29],Active
same,Activity,HepG2 [30],Active
same,Activity,HepG2 [31],Active
same,Activity,[32],Active
same,Activity,HepG2 [33],Active
same,Activity,HepG2 [34],32.6%
same,Activity,HepG2 [35],40.6%
same,Activity,HepG2 [36],Active
same,Activity,HepG2 [37],Active
same,IC50,[38],3.76 µM
same,IC50,[39],4.36 µM
same,CI,[40],0.56
same,CI,[41],0.52
same,CI,[42],0.54
same,CI,[43],0.46
same,Activity,HepG2 [44],Active
same,Activity,[45],Active
same,Activity,HepG2 [46],Active
same,Activity,HepG2 [47],Active
